Measurements reported in patent publication US20080161309A1, “Novel Compounds” (priority 2004, published 2008).
Where a name gives a salt, the structure may show the parent alone. Read-outs that look alike come from different tables or passages of the source.

Experiments:
[1] = test system: capsaicin-induced mechanical allodynia; assay: Rat model of capsaicin-induced mechanical allodynia; type: in vivo; details: sc, read-out: % Inhibition of allodynia
Procedure: Compounds of the present invention may be assayed for their ability to treat fibromylagia—like pain in a rat model of capsaicin-induced mechanical allodynia (e.g., Sluka, K A, (2002) J of Neuroscience, 22(13): 5687-5693). For example, a rat model of capsaicin-induced mechanical allodynia) was be carried out as follows:
On day 0, male Sprague-Dawley rats (˜150 g) in the dark cycle were placed in suspended wire-bottom cages and allowed to acclimate for 0.5 hour in a darkened, quiet room. The day 0 paw withdrawal threshold (PWT) was determined on the left hind paw by Von Frey hair assessment using the Dixon up and down method. After assessment, the plantar muscle of the right hind paw was injected with 100 μl capsaicin (0.25% (w/v) in 10% ethanol, 10% Tween 80, in sterile saline). On day 6 the PWT of the left hindpaw (contralateral from injection site) was determined for each animal. Animals from the day 6 prereads with PWT≦11.7 g were considered allodynic responders and were regrouped so that each cage had similar mean PWT values. On day 7, responders were dosed subcutaneously with 10 mg compound/kg body weight, or with vehicle alone. The vehicle was phosphate buffered saline containing 2% Cremophor® EL (BASF). The contralateral PWT values were determined at 1 hour after the single dose, with the investigator blinded to the dosing scheme.
In addition, the day 6 PWT was subtracted from the day 0 PWT to give the baseline window of allodynia present in each animal.

[2] = target: T1, human norepinephrine transporter (hNET) (Homo sapiens, UniProt P23975); assay: hNET receptor binding, [125I]-RTI-55, HEK-293 membranes; details: Cheng-Prusoff, read-out: NET Ki
T1 construct: expressed in transfected cells; host or cells: HEK-293, membranes
T1 sequence (P23975 whole entry): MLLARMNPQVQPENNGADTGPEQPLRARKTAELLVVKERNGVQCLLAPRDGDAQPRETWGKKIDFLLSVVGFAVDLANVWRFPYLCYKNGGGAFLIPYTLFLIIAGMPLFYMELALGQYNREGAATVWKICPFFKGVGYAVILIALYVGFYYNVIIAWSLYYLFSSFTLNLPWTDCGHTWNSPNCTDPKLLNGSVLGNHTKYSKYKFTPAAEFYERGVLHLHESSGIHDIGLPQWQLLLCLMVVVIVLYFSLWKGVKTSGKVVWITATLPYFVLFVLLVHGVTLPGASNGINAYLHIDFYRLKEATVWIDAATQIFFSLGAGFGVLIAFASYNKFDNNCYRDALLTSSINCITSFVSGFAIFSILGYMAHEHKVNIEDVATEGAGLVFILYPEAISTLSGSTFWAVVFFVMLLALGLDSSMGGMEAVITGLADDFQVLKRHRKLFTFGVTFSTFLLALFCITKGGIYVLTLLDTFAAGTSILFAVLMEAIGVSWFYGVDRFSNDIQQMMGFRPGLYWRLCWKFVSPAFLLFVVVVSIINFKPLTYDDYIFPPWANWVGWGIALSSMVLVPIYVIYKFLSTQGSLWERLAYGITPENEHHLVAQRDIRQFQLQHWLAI
Procedure: Cell pastes of HEK-293 cells transfected with a human norepinephrine transporter cDNA were prepared. The cell pastes were resuspended in 400 to 700 ml of Krebs-HEPES assay buffer (25 mM HEPES, 122 mM NaCl, 3 mM KCl, 1.2 mM MgSO4, 1.3 mM CaCl2, and 11 mM glucose, pH 7.4) with a Polytron homogenizer at setting 7 for 30 seconds. Aliquots of membranes (5 mg/ml protein) were stored in liquid nitrogen until used.
The binding assay was set up in Beckman deep-well polypropylene plates with a total volume of 250 μl containing: drug (10^−5M to 10^−12M), cell membranes, and […] [^125I]-RTI-55 (Perkin Elmer, NEX-272; specific activity 2200 Ci/mmol). The reaction was incubated by gentle agitation for 90 minutes at room temperature and was terminated by filtration through Whatman GF/C filter plates using a Brandel 96-well plate harvester. Scintillation fluid (100 μl) was added to each well, and bound [^125I]-RTI-55 was determined using a Wallac Trilux Beta Plate Counter. Test compounds were run in duplicate, and specific binding was defined as the difference between binding in the presence and absence of 10 μM desipramine.
Excel and GraphPad Prism software were used for data calculation and analysis. IC50 values were converted to Ki values using the Cheng-Prusoff equation. The Ki values (nM) for the hNET are reported below in Table 1.

[3] = target: T2, human serotonin transporter (hSERT) (Homo sapiens, UniProt P31645); assay: hSERT receptor binding, [125I]-RTI-55, HEK-293 membranes
T2 construct: expressed in transfected cells; host or cells: HEK-293, membranes
T2 sequence (P31645 whole entry): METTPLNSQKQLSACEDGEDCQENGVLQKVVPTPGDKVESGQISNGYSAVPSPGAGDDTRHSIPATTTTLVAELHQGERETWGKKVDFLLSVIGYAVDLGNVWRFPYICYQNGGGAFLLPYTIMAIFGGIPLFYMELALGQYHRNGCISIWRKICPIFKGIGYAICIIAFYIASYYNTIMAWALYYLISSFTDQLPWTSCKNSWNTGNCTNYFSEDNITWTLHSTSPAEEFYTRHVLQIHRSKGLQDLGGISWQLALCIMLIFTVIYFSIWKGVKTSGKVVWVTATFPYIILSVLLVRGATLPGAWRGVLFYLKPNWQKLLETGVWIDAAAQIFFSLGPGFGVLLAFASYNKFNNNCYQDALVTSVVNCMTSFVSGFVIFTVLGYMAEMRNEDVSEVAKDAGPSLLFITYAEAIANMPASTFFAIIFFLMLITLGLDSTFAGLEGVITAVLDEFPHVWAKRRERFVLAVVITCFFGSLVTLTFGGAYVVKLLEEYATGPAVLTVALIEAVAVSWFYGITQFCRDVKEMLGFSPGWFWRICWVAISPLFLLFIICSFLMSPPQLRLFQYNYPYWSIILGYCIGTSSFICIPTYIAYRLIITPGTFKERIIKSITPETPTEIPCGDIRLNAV
Procedure: Cell pastes of HEK-293 cells transfected with a human serotonin transporter cDNA were prepared. […] Aliquots of membranes (−2.5 mg/ml protein) were stored in liquid nitrogen until used.
The reaction was incubated and gently agitated for 90 minutes at room temperature, and terminated by removal of assay volume. […] Test compounds were run in duplicate, and specific binding was defined as the difference between binding in the presence and absence of 10 μM citalopram. Excel and GraphPad Prism software were used for data calculation and analysis. IC50 values were converted to Ki values using the Cheng-Prusoff equation.

[4] = [125I]-RTI-55, HEK-293 membranes, Cheng-Prusoff, read-out: SERT Ki
[5] = male Sprague-Dawley rats, 10 mg/kg subcutaneously, PWT 1 hour after single dose, mean of eight animals, normalized for vehicle

Ki [2] [µM]	Ki [3, 4] [µM]	Compound	inhibition in vivo at 10 mg/kg ([1]; 1 h) [%]	inhibition in vivo at 10 mg/kg [1, 5] [%]	Ki [3] [µM]
		CCOc1ccccc1O[C@@H](c1ccccc1)[C@@H]1CNCCO1 [(2S)-2-[(1S)-(2-ethoxyphenoxy)(phenyl)methyl]morpholine, reference compound]	17		
0.0131	0.0522	Fc1cccc([C@H](Oc2ccc(F)cc2Cl)[C@@H]2CNCCO2)c1 [Example 37, (2S)-2-[(1S)-(2-chloro-4-fluorophenoxy)-(3-fluorophenyl)methyl]morpholine hydrochloride]		80.3	
0.0073	0.126	Fc1cccc([C@H](Oc2cc(F)ccc2Cl)[C@@H]2CNCCO2)c1 [Example 41, (2S)-2-[(1S)-(2-Chloro-5-fluorophenoxy)(3-fluorophenyl)methyl] morpholine hydrochloride]		21.1	
0.0151	0.222	COc1cc(F)ccc1O[C@@H](c1cccc(F)c1)[C@@H]1CNCCO1 [Example 46, (2S)-2-[(1S)-(4-Fluoro-2-methoxyphenoxy)(3-fluorophenyl)methyl] morpholine hydrochloride]		46.1	
0.0165	0.08	Fc1cccc([C@H](Oc2cc(F)cc(F)c2Cl)[C@@H]2CNCCO2)c1 [Example 48, (2S)-2-[(1S)-(2-Chloro-3,5-difluorophenoxy)(3-fluorophenyl)methyl] morpholine hydrochloride]		6.5	
0.549	0.194	COc1cc(F)ccc1O[C@@H](c1cccc(Cl)c1)[C@@H]1CNCCO1 [Example 52, (2S)-2-[(1S)-(3-Chlorophenyl) (4-fluoro-2-methoxyphenoxy)methyl] morpholine hydrochloride]		7	
0.0136	0.152	Cc1cccc([C@H](Oc2ccc(F)cc2Cl)[C@@H]2CNCCO2)c1 [Example 56, (2S)-2-[(1S)-(2-Chloro-4-fluorophenoxy)-m-tolyl-methyl] morpholine hydrochloride]		35.6	
0.0153	0.153	COc1cccc([C@H](Oc2ccc(C)cc2OC)[C@@H]2CNCCO2)c1 [Example 62, (2S)-2-[(1S)-(2-Methoxy-4-methylphenoxy) (3-methoxyphenyl)methyl] morpholine hydrochloride]		40.5	
0.0119	0.111	COc1cccc([C@H](Oc2ccc(F)cc2Br)[C@@H]2CNCCO2)c1 [Example 70, (2S)-2-[(1S)-(2-Bromo-4-fluorophenoxy) (3-methoxyphenyl)methyl] morpholine hydrochloride]		27.3	
0.0126	0.1	COc1cc(C)ccc1O[C@@H](c1cccc(F)c1)[C@@H]1CNCCO1 [Example 79, (2S)-2-[(1S)-(3-Fluorophenyl)(2-methoxy-4-methylphenoxy)-methyl]morpholine hydrochloride]		99.5	
0.0044	0.127	Fc1c(Cl)cccc1O[C@@H](c1ccccc1)[C@@H]1CNCCO1 [Example 80, (2S)-2-[(1S)-(3-chloro-2-fluoro-phenoxy)-phenyl-methyl]-morpholine fumarate salt]		40	
0.0143	0.652	Fc1cc(F)c(O[C@@H](c2ccccc2)[C@@H]2CNCCO2)c(F)c1 [Example 86, (2S)-2-[(1S)-Phenyl-(2,4,6-trifluorophenoxy)methyl] morpholine fumarate]			
0.42	0.76	FC(F)(F)c1ccc(Cl)c(O[C@@H](c2ccccc2)[C@@H]2CNCCO2)c1 [Example 88, (2S)-2-[(1S)-(2-Chloro-5-trifluoromethylphenoxy)phenylmethyl] morpholine fumarate]			
0.228	0.0267	COc1c(Cl)c(Cl)cc(Cl)c1O[C@@H](c1ccccc1)[C@@H]1CNCCO1 [Example 91, (2S)-2-[(1S)-Phenyl-(3,4,6-trichloro-2-methoxyphenoxy)methyl] morpholine fumarate]			
0.0868	0.0717	COc1c(Cl)cccc1O[C@@H](c1ccccc1)[C@@H]1CNCCO1 [Example 92, (2S)-2-[(1S)-(3-Chloro-2-methoxyphenoxy)phenylmethyl] morpholine fumarate]			
0.0257	0.047	COc1ccc(O[C@@H](c2ccccc2)[C@@H]2CNCCO2)c(Cl)c1 [Example 96, (2S)-2-[(1S)-(2-Chloro-4-methoxyphenoxy)phenylmethyl] morpholine fumarate]			
0.0425	0.134	COc1ccc(Cl)c(O[C@@H](c2ccccc2)[C@@H]2CNCCO2)c1 [Example 97, (2S)-2-[(1S)-(2-Chloro-5-methoxyphenoxy)phenylmethyl] morpholine fumarate]			
0.755	0.0496	Clc1cc(Cl)c(O[C@@H](c2ccccc2)[C@@H]2CNCCO2)c(Cl)c1 [Example 98, (2S)-2-[(1S)-Phenyl-(2,4,6-trichlorophenoxy)methyl] morpholine fumarate]			
0.188	0.0358	COc1cc(C(F)(F)F)ccc1O[C@@H](c1ccccc1)[C@@H]1CNCCO1 [Example 99, (2S)-2-[(1S)-(2-Methoxy-4-trifluoromethylphenoxy)phenylmethyl] morpholine fumarate]			
0.033	0.0329	COc1cc(Cl)ccc1O[C@@H](c1cccc(Cl)c1)[C@@H]1CNCCO1 [Example 100, (2S)-2-[(1S)-(4-Chloro-2-methoxyphenoxy) (3-chloro phenyl)methyl] morpholine fumarate]			
0.0194	0.0671	COc1cc(C)ccc1O[C@@H](c1cccc(Cl)c1)[C@@H]1CNCCO1 [Example 101, (2S)-2-[(1S)-(3-Chlorophenyl) (2-methoxy-4-methyl phenoxy)methyl] morpholine fumarate]			
0.0128	0.101	COc1cc(Cl)ccc1O[C@@H](c1ccccn1)[C@@H]1CNCCO1 [Example 103, (2S)-2-[(1S)-(4-chloro-2-methoxyphenoxy)(pyridin-2-yl)methyl]morpholine fumarate]			
0.0211	0.486	Fc1cc(Cl)ccc1O[C@@H](c1ccccn1)[C@@H]1CNCCO1 [Example 104, (2S)-2-[(1S)-(4-chloro-2-fluorophenoxy)(pyridin-2-yl)methyl]morpholine fumarate]			
0.0138	0.216	COc1ccc(O[C@@H](c2ccccn2)[C@@H]2CNCCO2)c(Cl)c1 [Example 106, (2S)-2-[(1S)-(2-chloro-4-methoxyphenoxy)(pyridin-2-yl)methyl]morpholine fumarate]			

Compound	Ki [2] [µM]	Ki [3, 4] [µM]	inhibition in vivo at 10 mg/kg ([1]; 1 h) [%]	inhibition in vivo at 10 mg/kg [1, 5] [%]	Ki [3] [µM]
COc1cc(Cl)ccc1O[C@@H](c1cccc(F)c1)[C@@H]1CNCCO1 [Example 45, (2S)-2-[(1S)-(4-Chloro-2-methoxyphenoxy)(3-fluorophenyl)methyl] morpholine hydrochloride]	0.0105		54.6		0.03
COc1cc(Br)ccc1O[C@@H](c1ccccc1)[C@@H]1CNCCO1 [Example 94, (2S)-2-[(1S)-(4-Bromo-2-methoxyphenoxy)phenylmethyl] morpholine fumarate]	0.0121	0.0223			
(2S)-2-[(1S)-Pentachlorophenyloxy phenyl methyl] morpholine fumarate [Example 95]	0.587	0.0396			
